ChEMBL document CHEMBL1955803, “Preclinical in vivo evaluation of efficacy, pharmacokinetics, and pharmacodynamics of a novel MEK1/2 kinase inhibitor RO5068760 in multiple tumor models” (Mol Cancer Ther, 2010)
pEC50, pIC50: −log10 of the molar value. Calls of active or inactive are those of the source. The calls are words filed in the database; no cut-off is given here.

What was measured:
[1] = target: T1, Dual specificity mitogen-activated protein kinase kinase 1 (Homo sapiens, UniProt Q02750); assay: Inhibition of MEK1
T1 sequence (Q02750 whole entry): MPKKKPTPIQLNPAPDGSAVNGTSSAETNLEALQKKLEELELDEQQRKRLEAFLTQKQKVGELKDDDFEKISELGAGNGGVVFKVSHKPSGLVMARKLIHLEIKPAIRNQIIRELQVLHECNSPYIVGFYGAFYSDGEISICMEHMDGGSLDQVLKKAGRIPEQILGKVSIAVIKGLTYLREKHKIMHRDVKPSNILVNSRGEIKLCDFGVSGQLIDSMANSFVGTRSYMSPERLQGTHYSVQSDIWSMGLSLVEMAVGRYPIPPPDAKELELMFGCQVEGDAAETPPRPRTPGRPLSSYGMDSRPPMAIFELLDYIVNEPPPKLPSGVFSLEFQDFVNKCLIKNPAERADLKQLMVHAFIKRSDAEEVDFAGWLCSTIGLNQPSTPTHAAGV

[2] = target: T1, Dual specificity mitogen-activated protein kinase kinase 1; assay: Inhibition of MEK1 in human H460 cells assessed as inhibition of ERK phosphorylation by Western blot analysis; type: cell-based
[3] = Cell cycle arrest in human LOX cells assessed as accumulation at G1 phase; type: functional, cell-based
[4] = Antitumor activity against human LOX cells expressing B-Raf V600E mutant xenografted in nude mouse assessed as tumor growth inhibition at 6.25 mg/kg, po bid; type: functional; details: read-out: GI
[5] = Antitumor activity against human LOX cells expressing B-Raf V600E mutant xenografted in nude mouse assessed as tumor growth inhibition at 50 mg/kg, po bid; type: functional; details: read-out: GI
[6] = Antitumor activity against human LOX cells expressing B-Raf V600E mutant xenografted in nude mouse assessed as tumor growth inhibition at 500 mg/kg, po administered weekly once; type: functional; details: read-out: GI
HT-29 = assay: Antitumor activity against human HT-29 cells expressing B-Raf V600E mutant xenografted in nude mouse assessed as tumor growth inhibition at 100 mg/kg, po bid; type: functional; details: read-out: GI
MIA PaCa-2 [7] = assay: Antitumor activity against human MIAPaCa2 cells expressing K-Ras G12C mutant xenografted in nude mouse assessed as tumor growth inhibition at 200 mg/kg, po bid; type: functional; details: read-out: GI
Mus musculus [8] = assay: Toxicity in human LOX cells expressing B-Raf V600E mutant xenografted nude mouse assessed as gross signs of adverse effect at 6.25 to 200 mg/kg, po bid for 3 weeks; type: organism-based; set-up: dose 6.25-200 mg/kg, route oral; details: in vivo, 504 h
Mus musculus [9] = assay: Toxicity in human MIAPaCa2 cells expressing K-Ras G12C mutant xenografted nude mouse assessed as gross signs of adverse effect at 25 to 200 mg/kg, po bid for 3 weeks; type: organism-based, MIA PaCa-2; set-up: dose 25-200 mg/kg, route oral; details: in vivo, 504 h
Mus musculus [10] = assay: Toxicity in human MIAPaCa2 cells expressing K-Ras G12C mutant xenografted nude mouse assessed as gross signs of adverse effect at 500 mg/kg, po administered weekly once for 3 weeks; type: organism-based, MIA PaCa-2; set-up: dose 500 mg/kg, route oral; details: in vivo, 504 h
Mus musculus [11] = assay: Inhibition of MEK-mediated ERK phosphorylation in tumor of human LOX cells expressing B-Raf V600E mutant xenografted nude mouse at 100 mg/kg, po after 8 hrs by Western blot analysis relative to control; type: functional
Mus musculus [12] = assay: Inhibition of MEK-mediated ERK phosphorylation in tumor of human LOX cells expressing B-Raf V600E mutant xenografted nude mouse at 100 mg/kg, po after 12 hrs by Western blot analysis relative to control; type: functional
[13] = Plasma concentration in human LOX cells expressing B-Raf V600E mutant xenografted nude mouse at 100 mg/kg, po after 1 hr; type: ADME, organism-based; set-up: dose 100 mg/kg, route oral
[14] = Plasma concentration in human LOX cells expressing B-Raf V600E mutant xenografted nude mouse at 100 mg/kg, po after 12 hrs; type: ADME, organism-based; set-up: dose 100 mg/kg, route oral
[15] = Drug level in human LOX cells expressing B-Raf V600E mutant xenografted nude mouse tumor at 100 mg/kg, po after 2 hrs; type: ADME, organism-based, Neoplasm; set-up: dose 100 mg/kg, route oral; details: read-out: Drug uptake
[16] = Drug level in human LOX cells expressing B-Raf V600E mutant xenografted nude mouse tumor at 100 mg/kg, po after 8 hrs; type: ADME, organism-based, Neoplasm; set-up: dose 100 mg/kg, route oral; details: read-out: Drug uptake
Mus musculus [17] = assay: Inhibition of MEK-mediated ERK phosphorylation in tumor of human HT-29 cells expressing B-Raf V600E mutant xenografted nude mouse at 50 mg/kg, po after 12 hrs by Western blot analysis relative to control; type: functional; details: HT-29, 12 h
[18] = Plasma concentration in human HT-29 cells expressing B-Raf V600E mutant xenografted nude mouse at 50 mg/kg, po after 4 hrs; type: ADME, organism-based; set-up: dose 50 mg/kg, route oral
[19] = Drug level in human HT-29 cells expressing B-Raf V600E mutant xenografted nude mouse tumor at 50 mg/kg, po after 12 hrs; type: ADME, organism-based, Neoplasm; set-up: dose 50 mg/kg, route oral; details: read-out: Drug uptake
Mus musculus [20] = assay: Inhibition of MEK-mediated ERK phosphorylation in tumor of human HT-29 cells expressing B-Raf V600E mutant xenografted nude mouse at 100 mg/kg, po after 2 hrs by Western blot analysis relative to control; type: functional; details: HT-29, 2 h
[21] = Plasma concentration in human HT-29 cells expressing B-Raf V600E mutant xenografted nude mouse at 100 mg/kg, po after 8 hrs; type: ADME, organism-based; set-up: dose 100 mg/kg, route oral
[22] = Drug level in human HT-29 cells expressing B-Raf V600E mutant xenografted nude mouse tumor at 100 mg/kg, po after 8 hrs; type: ADME, organism-based, Neoplasm; set-up: dose 100 mg/kg, route oral; details: read-out: Drug uptake
Cynomolgus monkey = assay: Inhibition of MEK in po dosed cynomolgus monkey peripheral blood mononuclear cells assessed as inhibition of PMA-stimulated ERK phosphorylation after 1 to 24 hrs by flow cytometry; type: functional, organism-based; details: Macaca fascicularis
[23] = Cmax in human LOX cells expressing B-Raf V600E mutant xenografted nude mouse at 12.5 mg/kg, po bid; type: ADME, organism-based; set-up: dose 12.5 mg/kg, route oral; details: in vivo
Mus musculus [24] = assay: Average drug concentration in human HT-29 cells expressing B-Raf V600E mutant xenografted nude mouse plasma at 50 mg/kg, po bid; type: ADME, organism-based; set-up: dose 50 mg/kg, route oral; details: in vivo
[25] = AUC (0 to 12 hrs) in human HT-29 cells expressing B-Raf V600E mutant xenografted nude mouse at 100 mg/kg, po bid; type: ADME, organism-based; set-up: time < 12 hr, dose 100 mg/kg, route oral; details: in vivo
Mus musculus [26] = assay: Average drug concentration in human HT-29 cells expressing B-Raf V600E mutant xenografted nude mouse plasma at 100 mg/kg, po bid; type: ADME, organism-based; set-up: dose 100 mg/kg, route oral; details: in vivo
[27] = Cmax in human H460 cells expressing K-Ras Q61H mutant xenografted nude mouse at 25 mg/kg, po bid; type: ADME, organism-based; set-up: dose 25 mg/kg, route oral; details: in vivo
[28] = Cmax in human H460 cells expressing K-Ras Q61H mutant xenografted nude mouse at 100 mg/kg, po bid; type: ADME, organism-based; set-up: dose 100 mg/kg, route oral; details: in vivo
Mus musculus [29] = assay: Average drug concentration in human H460 cells expressing K-Ras Q61H mutant xenografted nude mouse plasma at 100 mg/kg, po bid; type: ADME, organism-based; set-up: dose 100 mg/kg, route oral; details: in vivo
Mus musculus [30] = assay: Average drug concentration in human H460 cells expressing K-Ras Q61H mutant xenografted nude mouse plasma at 200 mg/kg, po qd; type: ADME, organism-based; set-up: dose 200 mg/kg, route oral; details: in vivo
[31] = Cmax in human MIAPaCa2 cells expressing K-Ras G12C mutant xenografted nude mouse at 50 mg/kg, po bid; type: ADME, organism-based, MIA PaCa-2; set-up: dose 50 mg/kg, route oral; details: in vivo
[32] = Cmax in human MIAPaCa2 cells expressing K-Ras G12C mutant xenografted nude mouse at 100 mg/kg, po bid; type: ADME, organism-based, MIA PaCa-2; set-up: dose 100 mg/kg, route oral; details: in vivo
[33] = AUC (0 to 12 hrs) in human MIAPaCa2 cells expressing K-Ras G12C mutant xenografted nude mouse at 100 mg/kg, po bid; type: ADME, organism-based, MIA PaCa-2; set-up: time < 12 hr, dose 100 mg/kg, route oral; details: in vivo
Mus musculus [34] = assay: Inhibition of MEK-mediated ERK phosphorylation in po dosed human LOX cells expressing B-Raf V600E mutant xenografted nude mouse tumor by Western blot analysis; type: functional, organism-based
MIA PaCa-2 [35] = assay: Antitumor activity against human MIAPaCa2 cells expressing K-Ras G12C mutant xenografted in nude mouse assessed as tumor growth inhibition at 500 mg/kg, po administered weekly once; type: functional; details: read-out: GI
[36] = target: T2, Dual specificity mitogen-activated protein kinase kinase; MEK1/2 (Homo sapiens) (UniProt P36507+Q02750); details: LOX, 2 to 10 uM
T2 sequence (P36507 whole entry, looked up): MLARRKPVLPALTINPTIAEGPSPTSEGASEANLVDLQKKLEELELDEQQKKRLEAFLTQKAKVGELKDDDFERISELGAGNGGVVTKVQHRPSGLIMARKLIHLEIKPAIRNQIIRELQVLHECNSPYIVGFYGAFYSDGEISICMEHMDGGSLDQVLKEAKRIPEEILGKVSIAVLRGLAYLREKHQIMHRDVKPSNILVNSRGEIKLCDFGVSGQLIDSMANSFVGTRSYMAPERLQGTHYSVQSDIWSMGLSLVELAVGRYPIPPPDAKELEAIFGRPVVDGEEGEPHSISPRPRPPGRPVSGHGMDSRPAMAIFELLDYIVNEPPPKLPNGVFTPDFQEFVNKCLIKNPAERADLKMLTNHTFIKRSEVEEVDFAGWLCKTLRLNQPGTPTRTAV
T2 sequence (Q02750 whole entry, looked up): as the sequence (Q02750 whole entry) above
Description: Inhibition of MEK1/2 phosphorylation in human LOX cells at 2 to 10 uM by Western blot analysis

[37] = target: T2, Dual specificity mitogen-activated protein kinase kinase; MEK1/2 (Homo sapiens); details: LOX, 2 to 10 uM; remark: listed apart in the source
Description: Inhibition of MEK1/2 in human LOX cells assessed as upregulation of p27 expression at 2 to 10 uM by Western blot analysis

pIC50 [1]: 7.60
pIC50 [2]: 7.09
concentration at 1 h [13]: 4840 ng/mL
concentration at 12 h [14]: 72 ng/mL
concentration at 2 h [15]: 3040 ng/g
concentration at 8 h [16]: 1160 ng/g
concentration at 4 h [18]: 4030 ng/mL
concentration at 12 h [19]: 188 ng/g
concentration at 8 h [21]: 741 ng/mL
concentration at 8 h [22]: 293 ng/g
pEC50 (Cynomolgus monkey): 5.85
Cmax [23]: 1170 ng/mL
Cave (Mus musculus [24]): 609 ng/mL
AUC at 12 h [25]: 18400 ng·h/mL
Cave (Mus musculus [26]): 1530 ng/mL
Cmax [27]: 2750 ng/mL
Cmax [28]: 16900 ng/mL
Cave (Mus musculus [29]): 5242 ng/mL
Cave (Mus musculus [30]): 5083 ng/mL
Cmax [31]: 5240 ng/mL
Cmax [32]: 9650 ng/mL
AUC at 12 h [33]: 32700 ng·h/mL
EC50 (Mus musculus [34]): 928 ng/g
inhibition [36]: Active
inhibition [37]: Active
Compound: C[C@@H](c1ccccc1)[C@@H](C(=O)Nc1ccc(I)cc1F)N1C(=O)N[C@H](c2ccc(OC[C@H](O)CO)cc2)C1=O
Activity [3]: Active
inhibition in vivo at 6.25 mg/kg [4]: 61%
inhibition in vivo at 50 mg/kg [5]: > 100%
inhibition in vivo at 500 mg/kg [6]: > 100%
inhibition in vivo at 100 mg/kg (HT-29): 95%
inhibition in vivo at 200 mg/kg (MIA PaCa-2 [7]): 97%
Activity (Mus musculus [8]): Non-toxic
Activity (Mus musculus [9]): Non-toxic
Activity (Mus musculus [10]): Non-toxic
inhibition in vivo at 100 mg/kg (Mus musculus [11]): 48%
inhibition in vivo at 100 mg/kg (Mus musculus [12]): 12%
inhibition in vivo at 50 mg/kg (Mus musculus [17]): 0%
inhibition in vivo at 100 mg/kg (Mus musculus [20]): 76%
inhibition in vivo at 500 mg/kg (MIA PaCa-2 [35]): 42%
